# Assay results: ChEMBL document CHEMBL1127188, “Phenylphosphonate monoester analogs of cocaine. Potential haptens for the generation of catalytic antibodies” (Bioorg Med Chem Lett, 1993)
# Organism: Mus musculus
# Assay: Compound was tested for its ability to inhibit mAb (monoclonal antibody) binding to immobilized ova-10d; inhibited the binding of seven of nine mAbs to immobilized ova-10d, A - The IC50 of these seven mAb ranged from 15 to 350 uM
# Format: functional, organism-based
smiles,measurement,value
COC(=O)C1C(OP(=O)(O)c2ccccc2)CC2CCC1N2C (stereo unspecified),IC50,A
